{"source": "patent US20090306058A1", "about": "“Sulphone Derivatives for Treatment of Cancer” (priority 2005, published 2009)", "tested_on": "Cells expressing Notch (ALL-SIL, DND-41, HPB-ALL or TALL-1)", "assay": "Assay for Cell Cycle Arrest", "assay_type": "cell-based", "conditions": "concentrations up to 10 μM, incubation typically 4-8 days, in comparison to untreated controls", "experimental": "Cells expressing Notch (ALL-SIL, DND-41, HPB-ALL or TALL-1) (Weng et al, Science, 306 (2004), 269-71) were incubated in the presence or absence of a compound of the instant invention (e.g. the compound of Examples 2 and 7 below) at concentrations up to 10 μM. At the end of the incubation (typically 4-8 days), the cells were collected, fixed in 70% ethanol on ice for >2 hours, washed, then labelled for 15 min at 37° C. with propidium iodide (0.2 mg/ml) (PI) in the presence of 0.1% Triton X100 and 0.2 mg/ml RNase and subjected to FACS analysis.", "data": [{"smiles": "CC[C@@H]1C[C@H]2C[C@@](c3cc(F)ccc3F)(S(=O)(=O)c3ccc(C(F)(F)F)cc3)CC[C@H]2NS1(=O)=O", "note": "[Example 2, (3R,4aS,6S,8aR)-6-(2,5-difluorophenyl)-3-ethyl-6-{[4-(trifluoromethyl)phenyl]sulfonyl}octahydro-1H-2,1-benzothiazine 2,2-dioxide]", "values": [{"measurement": "cell cycle populations by FACS (propidium iodide)", "result": "severe loss of G2- and S-phase populations"}]}]}
